Test results published in patent publication US4968706A, “Ethers and thioethers having therapeutical activity, their preparation and pharmaceutical compositions containing them” (priority 1987, dated 1990).

Tests used:
[1] = tested on: hyperreactive spasmus induced by acetylcholine challenge; test: Hyperreactive spasmus induced by acetylcholine challenge in anaesthetized guinea-pigs submitted to forced tobacco-smoking respiration; format: in vivo; conditions: for activity as reference substance in the acetylcholine challenge procedure: i.m. administration
[2] = tested on: tracheo-bronchial mucus secretion; test: Red phenol secretion in BAL (mucus secretion); format: in vivo, Albino Swiss male mice
Experimental: (§1) The ability of a drug to modify the tracheo-bronchial mucus secretion is evaluated measuring the excretion of a dyestuff in the respiratory tree.
(§2) Albino Swiss male mice are used in this test and the animals are killed 30 minutes after dye treatment. The dye content in BAL's is evaluated spectrometrically at 546 nm.
An increased red phenol secretion in BAL's after drug treatment means stimulation of mucus production.

[3] = tested on: tracheo-bronchial mucus secretion; test: Uranine secretion in BAL (mucus secretion); format: in vivo, Albino Swiss female mice
Experimental: as §1
The animals are sacrified 30 minutes after; the respiratory tree is excised and accurately washed. The washing fluids (BAL) are collected and evaluated for the uranine content using a spectrofluorimetric technique.
as §2

[4] = tested on: tracheo-bronchial mucus secretion; test: Time-course of red phenol excretion (long-lasting action); format: in vivo, Albino Swiss male mice
Experimental: as §2
Infact, a substance can be administered 2, 1 and 1/2 hours before the intraperitoneal administration of the red phenol marker. If the animals are killed, as usual, half an hour after the dyestuff treatment, the overall time of drug action increases from 1 hr to 11/2 and 21/2 hrs respectively.

[5] = tested on: tracheo-bronchial mucus secretion; conditions: known effect of therapeutically active drugs; cited from earlier work
[6] = 100 mg/kg os, overall experiment 1 1/2 hours
[7] = 100 mg/kg os, overall experiment 2 1/2 hours
[8] = 100 mg/kg os, overall experiment 1 hour

SMILES | activity as reference substance in the acetylcholine challenge procedure [1] | % increase of dyestuff secretion in BAL (vs. untreated animals), red phenol ([2]; 25 mg/kg os) [%] | % increase of dyestuff secretion in BAL (vs. untreated animals), red phenol ([2]; 50 mg/kg os) [%] | % increase of dyestuff secretion in BAL (vs. untreated animals), red phenol ([2]; 100 mg/kg os) [%] | % increase of dyestuff secretion in BAL (vs. untreated animals), uranine ([3]; 25 mg/kg os) [%] | % increase of dyestuff secretion in BAL (vs. untreated animals), uranine ([3]; 50 mg/kg os) [%] | % increase of dyestuff secretion in BAL (vs. untreated animals), uranine ([3]; 100 mg/kg os) [%] | Time-course of % increase of red phenol excretion (vs. untreated animals) [4, 6] [%] | Time-course of % increase of red phenol excretion (vs. untreated animals) [4, 7] [%] | Time-course of % increase of red phenol excretion (vs. untreated animals) [4, 8] [%] | reduction of hyperreactive spasmus induced by acetylcholine challenge ([1]; e.v. treatment, 5 to 30 mg/kg, forced tobacco-smoking respiration) | uranine content in the BAL's in respect to control values (in words) [5] | % increase of dyestuff secretion in BAL (vs. untreated animals), red phenol ([2]; 200 mg/kg os) [%] | % increase of dyestuff secretion in BAL (vs. untreated animals), uranine ([3]; 200 mg/kg os) [%] | Time-course of % increase of red phenol excretion (vs. untreated animals) ([4]; 200 mg/kg os, overall experiment 1 1/2 hours) [%] | Time-course of % increase of red phenol excretion (vs. untreated animals) ([4]; 200 mg/kg os, overall experiment 2 1/2 hours) [%] | Time-course of % increase of red phenol excretion (vs. untreated animals) ([4]; 200 mg/kg os, overall experiment 1 hour) [%]
C[C@H]1C[C@@H]2[C@H]([C@@H](O)C[C@@]3(C)[C@H]2CC[C@]3(O)C(=O)CO)[C@@]2(C)C=CC(=O)C=C12 [6-α-methylprednisolone] | Positive | – | – | – | – | – | – | – | – | – | – | – | – | – | – | – | –
COc1ccccc1OCCSCC(=O)O [Substance A, 3-thia-5-(2-methoxy-phenoxy)-pentanoic acid] | – | 25 | 50 | 104 | 45 | 98 | 138 | 98 | 62 | 104 | – | – | – | – | – | – | –
COc1ccccc1OCCSCC(=O)NCc1cccnc1 [Substance B, N-(3-pyridyl)methy 1-3-thia-5 (2-methoxy-phenoxy)pentanoic acid amide] | – | 12 | 73 | 126 | 70 | 140 | 190 | 119 | 62 | 126 | able to reduce the hyperreactive spasmus induced by acetylcholine challenge in dose dependent way | – | – | – | – | – | –
COc1ccccc1OCC1COC(CSCC(=O)O)O1 (centres unmarked) [Substance C, 3-thia-4-[4-(2-methoxy-phenoxy)methyl-(Z,E)-dioxolan-2-yl]-butanoic acid] | – | 47 | 83 | 143 | 25 | 52 | 101 | 72 | 42 | 143 | – | – | – | – | – | – | –
COc1ccccc1OCC1COC(CSCC(=O)NCc2cccnc2)O1 (centres unmarked) [Substance D, N-(3-pyridyl)methyl-3-thia-4-[4-(2-methoxy-phenoxy)-methyl-(Z,E)-(1,3)-dioxolan-2-yl]-butanoic acid amide] | – | 49 | 120 | 179 | 66 | 132 | 284 | 111 | 58 | 179 | – | – | – | – | – | – | –
CN(Cc1cc(Br)cc(Br)c1N)C1CCCCC1 [Substance E, bromexine, reference compound] | – | 28 | 69 | 83 | 0 | 50 | 63 | 61 | 21 | 98 | – | increase the uranine content in the BAL's in a dose dependent way | – | – | – | – | –
CC1=CCC(C(C)(C)O)CC1O (centres unmarked) [Substance F, sobrerol, reference compound] | – | – | 48 | 69 | – | 54 | 104 | – | – | – | – | increase the uranine content in the BAL's in a dose dependent way | 111 | 144 | 73 | 30 | 108
O=C(O)c1cc(=O)c2c(OCC(O)COc3cccc4oc(C(=O)O)cc(=O)c34)cccc2o1 [sodium dichromoglicate] | Positive | – | – | – | – | – | – | – | – | – | – | – | – | – | – | – | –
